Source: article PMC10959927, “Platinum iodido drugs show potential anti-tumor activity, affecting cancer cell metabolism and inducing ROS and senescence in gastrointestinal cancer cells” (Communications Biology, 2024)
“And” between values parts separate entries of the source, which are not always exact repeats. Equal entries are not always repeated.

Key:
PANC1 cells [1] = experiment: Immunofluorescence of γ-H2AX and 53BP1 foci; type: cell-based, human; details: for foci/cell, share of cells in class (Suma 100) / foci/cell, number of cells in class: PANC1, Fig. 3B; for foci/cell, number of cells in class: cell count
Protocol: (§1) Cells (7 × 10^4) were seeded on 20 mm coverslips. […] Coverslips were incubated for 1 h with the primary antibody (Cell Signaling: H2AX Ser139 (#2595) and 53BP1 (#4937)) at room temperature, followed by a 1 h incubation with the appropriate secondary antibody. DNA was stained with DAPI. Fluorescence microscopy was performed using a NIKON Eclipse 90i. The image analysis was performed using the software program Nikon NIS-Elements and Image J.

AGS cells [2] = experiment: Immunofluorescence of γ-H2AX and 53BP1 foci; type: cell-based, human; details: for foci/cell, share of cells in class (Suma 100) / foci/cell, number of cells in class: Fig. 3B; for foci/cell, number of cells in class: cell count
Protocol: as §1

PANC1 cells [3] = experiment: Flow cytometry mitochondrial mass and membrane potential (MitoTracker Green / CMXRos); type: cell-based, human
Protocol: (§2) We used flow cytometry to study the mitochondrial mass, mitochondrial membrane potential (ΔΨm) and cellular senescence of untreated and treated cells. Cells (5 × 10^4) were seeded in 24-multiwell dishes and cultured overnight. […] Cells were tripsinized, stained with Mitoprobes and resuspended in Flow buffer [1X PBS; 3% Fetal Bovine Serum (v/v); 3 mM EDTA (v/v)] before analysis with a 4-laser Attune NxT Acoustic Cytometer (Thermo Fisher Scientific). For Mitoprobe assays, […] DAPI (Sigma) was used to exclude dead cells. Data were analyzed with FlowJo 9.3 software (Tree Star Inc., Ashland, OR). For mitochondrial mass and ΔΨm measurement, Mitotracker Green (MTGreen, M7514, Invitrogen) and Mitotracker Red CMXRos (CMXROS, M7512, Invitrogen) were used, respectively. Probes were incubated with cells for 30 min at 37 °C at a concentration of 100 nM (MTGreen) and 20 nM (CMXROS), and fluorescence was detected using the filters (Ex488nm/Em530/30) BL1 and (Ex561nm/Em585/16) YL1, respectively. To determine mitochondria functionality, the ratio between ΔΨm (MitoTracker Red CMXRos) versus Mit. Mass (MitoTracker Green) was calculated. The gating strategy used in all the Flow Cytometry experiments is reflected in Fig.S10.

MKN45 cells [4] = experiment: as above; type: cell-based, human
Protocol: as §2

AGS cells [5] = experiment: as above; type: cell-based, human; details: fold change vs C, replicates
Protocol: as §2

PANC1 cells [6] = experiment: SA-β-Gal activity, CellEvent Senescence Green flow cytometry;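 note: IC50 concentration of each compound relative to untreated control set as 1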; type: cell-based, human; details: Fig. 3A, replicate values
Protocol: (§3) SA-β-Gal activity was measured following two different approaches. (i) AGS, MKN45 and PANC1 cells (5 × 10^4) were seeded in 24-multiwell dishes and incubated overnight. […] For flow cytometry cell senescence detection, cells were tripsinized, fixed for 15 min with PFA 4% and stained with the CellEvent Senescense Green Flow Cytometry Assay Kit (C10840, Invitrogen) according to manufacturer’s instructions. CellEvent Senescense Green Probe was used at a 1:500 dilution and fluorescence was detected using the filter (Ex488nm/Em530/30) BL1 with a 4-laser Attune NxT Acoustic Cytometer (Thermo Fisher Scientific). […] After 3 h, the treatments were removed, new supplemented medium was added, and cells were incubated for an additional 24 h. Finally, SA-β-Gal staining was performed using the Senescence Cells Histochemical Staining Kit (CS0030-1KT) according to the manufacturer’s instructions.

MKN45 cells [7] = experiment: as above; type: cell-based, human; details: Fig. 3A, replicate values
Protocol: as §3

AGS cells [8] = experiment: as above; type: cell-based, human; details: Fig. 3A, replicate values
Protocol: as §3

HPDE cells = experiment: Cell viability, crystal violet staining, non-tumoral cells; details: for percentage of viable cells: 48 h
Protocol: (§4) Cell viability was assessed using a crystal violet-based staining method. […] The cells (2 × 10^5) were seeded in 24-multiwell dishes in 0.5 mL of complete medium and incubated overnight. […] After 48 h, cells were fixed with 1% glutaraldehyde (20–30 min), washed with distilled water, and stained with 0.1% crystal violet. […] IC50 were calculated by using GraphPad Prism (version 8.0). Nonlinear regression was used to fit the data to the log (inhibitor) versus response (variable slope).

CC2509 fibroblasts = experiment: as above; details: CC2509, 48 h
Protocol: as §4

AGS cells [9] = experiment: SA-β-Gal histochemical staining; type: cell-based, human; details: Fig. S4A
Protocol: as §3

[10] = PANC1, fold change vs C, replicates
[11] = MKN45, fold change vs C, replicates
[12] = read-out: IC50 concentration (± SD) at 48 h in non-tumoral cell lines

SMILES: CC(C)[NH][Pt@SP1]([I])([I])[NH]C(C)C [I6, cis-[PtI2(isopropylamine)2]]
- foci/cell: number of cells with 16-30 foci (PANC1 cells [1]; PANC1, Fig. S4B, cell counts): 43
- foci/cell: number of cells with 31-45 foci (PANC1 cells [1]; PANC1, Fig. S4B, cell counts): 7
- foci/cell: number of cells with 46-60 foci (PANC1 cells [1]; PANC1, Fig. S4B, cell counts): 2
- foci/cell: number of cells with <15 foci (PANC1 cells [1]; PANC1, Fig. S4B, cell counts): 39
- foci/cell: number of cells with >61 foci (PANC1 cells [1]; PANC1, Fig. S4B, cell counts): 5
- foci/cell: share of cells with 16-30 foci (Suma 100) (PANC1 cells [1]; PANC1, Fig. S4B, share of N): 44.7917
- foci/cell: share of cells with 31-45 foci (Suma 100) (PANC1 cells [1]; PANC1, Fig. S4B, share of N): 7.292
- foci/cell: share of cells with 46-60 foci (Suma 100) (PANC1 cells [1]; PANC1, Fig. S4B, share of N): 2.083
- foci/cell: share of cells with <15 foci (Suma 100) (PANC1 cells [1]; PANC1, Fig. S4B, share of N): 40.625
- foci/cell: share of cells with >61 foci (Suma 100) (PANC1 cells [1]; PANC1, Fig. S4B, share of N): 5.208
- foci/cell, share of cells in class (Suma 100) (PANC1 cells [1]; class 16-30 foci/cell): 41.9753
- foci/cell, number of cells in class (PANC1 cells [1]; class 16-30 foci/cell): 34
- foci/cell, share of cells in class (Suma 100) (PANC1 cells [1]; class 31-45 foci/cell): 18.5185
- foci/cell, number of cells in class (PANC1 cells [1]; class 31-45 foci/cell): 15
- foci/cell, share of cells in class (Suma 100) (PANC1 cells [1]; class 46-60 foci/cell): 6.173
- foci/cell, number of cells in class (PANC1 cells [1]; class 46-60 foci/cell): 5
- foci/cell, share of cells in class (Suma 100) (PANC1 cells [1]; class <15 foci/cell): 22.2222
- foci/cell, number of cells in class (PANC1 cells [1]; class <15 foci/cell): 18
- foci/cell, share of cells in class (Suma 100) (PANC1 cells [1]; class >61 foci/cell): 11.1111
- foci/cell, number of cells in class (PANC1 cells [1]; class >61 foci/cell): 9
- foci/cell, share of cells in class (Suma 100) (AGS cells [2]; class 16-30 foci/cell): 23.3831
- foci/cell, number of cells in class (AGS cells [2]; class 16-30 foci/cell): 47
- foci/cell, share of cells in class (Suma 100) (AGS cells [2]; class 31-45 foci/cell): 26.3682
- foci/cell, number of cells in class (AGS cells [2]; class 31-45 foci/cell): 53
- foci/cell, share of cells in class (Suma 100) (AGS cells [2]; class 46-60 foci/cell): 13.9303
- foci/cell, number of cells in class (AGS cells [2]; class 46-60 foci/cell): 28
- foci/cell, share of cells in class (Suma 100) (AGS cells [2]; class <15 foci/cell): 29.3532
- foci/cell, number of cells in class (AGS cells [2]; class <15 foci/cell): 59
- foci/cell, share of cells in class (Suma 100) (AGS cells [2]; class >61 foci/cell): 6.965
- foci/cell, number of cells in class (AGS cells [2]; class >61 foci/cell): 14
- foci/cell: number of cells with 16-30 foci (AGS cells [2]; Fig. S4B, cell counts): 54
- foci/cell: number of cells with 31-45 foci (AGS cells [2]; Fig. S4B, cell counts): 20
- foci/cell: number of cells with 46-60 foci (AGS cells [2]; Fig. S4B, cell counts): 3
- foci/cell: number of cells with <15 foci (AGS cells [2]; Fig. S4B, cell counts): 39
- foci/cell: number of cells with >61 foci (AGS cells [2]; Fig. S4B, cell counts): 4
- foci/cell: share of cells with 16-30 foci (Suma 100) (AGS cells [2]; Fig. S4B, share of N): 45
- foci/cell: share of cells with 31-45 foci (Suma 100) (AGS cells [2]; Fig. S4B, share of N): 16.6667
- foci/cell: share of cells with 46-60 foci (Suma 100) (AGS cells [2]; Fig. S4B, share of N): 2.5
- foci/cell: share of cells with <15 foci (Suma 100) (AGS cells [2]; Fig. S4B, share of N): 32.5
- foci/cell: share of cells with >61 foci (Suma 100) (AGS cells [2]; Fig. S4B, share of N): 3.333
- Fold change ΔΨm/MM (PANC1 cells [3]; PANC1, IC50 doses 24 h, CMX-ROS/MitoGreen ratio vs untreated 1.0): 0.61 and 0.39 and 0.44
- Fold change %CMXROS, ΔΨm (PANC1 cells [3]; [10]): 0.75 and 0.98 and 0.61
- Fold change %MTGreen, MM (PANC1 cells [3]; [10]): 1.22 and 2.53 and 2.1
- Fold change ΔΨm/MM (MKN45 cells [4]; MKN45, IC50 doses 24 h, CMX-ROS/MitoGreen ratio vs untreated 1.0): 0.26 and 0.21 and 0.27
- Fold change %CMXROS, ΔΨm (MKN45 cells [4]; [11]): 0.24 and 0.19 and 0.3
- Fold change %MTGreen, MM (MKN45 cells [4]; [11]): 0.93 and 0.91 and 1.1
- Fold change %CMXROS, ΔΨm (AGS cells [5]): 0.58 and 0.29 and 0.42
- Fold change %MTGreen, MM (AGS cells [5]): 0.83 and 0.75 and 1.298
- Fold change % Senescence (PANC1 cells [6]): 3.99 fold change and 3.23 fold change and 3.43 fold change
- Fold change % Senescence (MKN45 cells [7]): 5.26 fold change and 5.34 fold change and 6.2 fold change
- Fold change % Senescence (AGS cells [8]): 5.13 fold change and 5.74 fold change and 3.46 fold change
- percentage of viable cells (HPDE cells; dose 2.5 µM): 88.7955% and 72.4125% and 95.3401%
- percentage of viable cells (HPDE cells; dose 5 µM): 78.4314% and 72.7203% and 72.6353%
- percentage of viable cells (HPDE cells; dose 10 µM): 57.5163% and 55.8292% and 52.5038%
- percentage of viable cells (HPDE cells; dose 25 µM): 22.9225% and 35.4367% and 19.9292%
- percentage of viable cells (HPDE cells; dose 50 µM): 8.5901% and 14.6939% and 8.599%
- IC50 (HPDE cells; [12]): 15 µM and 14.2 µM
- percentage of viable cells (CC2509 fibroblasts; dose 2.5 µM): 101.369% and 68.5642% and 72.6415%
- percentage of viable cells (CC2509 fibroblasts; dose 5 µM): 100.382% and 62.1377% and 89.6445%
- percentage of viable cells (CC2509 fibroblasts; dose 10 µM): 50.1592% and 62.7776% and 90.9953%
- percentage of viable cells (CC2509 fibroblasts; dose 25 µM): 52.2611% and 59.729% and 78.3886%
- percentage of viable cells (CC2509 fibroblasts; dose 50 µM): 30.3822% and 34.0139% and 46.6351%
- IC50 (CC2509 fibroblasts; [12]): 35 µM and 33.8 µM
- Fold change % Senescence (AGS cells [9]): 49.02% and 67.7% and 53.18%
